IC50 data for eight molecules are collected here from ChEMBL document CHEMBL5729683, “Diazaindole derivative and use thereof as CHK1 inhibitor” (2023).

For test [1], the target named is Serine/threonine-protein kinase Chk2 (Homo sapiens, UniProt O96017). Briefly: Activity Test of Compounds in the CHK1 Coupled Reaction System: The compounds of the present disclosure used in the experiments were self-prepared, and their chemical names and structural formulas were shown in the preparation embodiments of each compound. […] The test was carried out on the KinaseProfiler™ protein kinase activity detection platform of Eurofins, and the experimental results were provided by the company. […] A mixture solution of Mg2′ and ATP (adenosine triphosphate) was added to initiate the reaction and the reaction solution was incubated at room temperature for 40 min. 0.5% […] was added to terminate the reaction. […] The value was read with scintillation counting method after drying.
Chain of Serine/threonine-protein kinase Chk2 (O96017 whole entry): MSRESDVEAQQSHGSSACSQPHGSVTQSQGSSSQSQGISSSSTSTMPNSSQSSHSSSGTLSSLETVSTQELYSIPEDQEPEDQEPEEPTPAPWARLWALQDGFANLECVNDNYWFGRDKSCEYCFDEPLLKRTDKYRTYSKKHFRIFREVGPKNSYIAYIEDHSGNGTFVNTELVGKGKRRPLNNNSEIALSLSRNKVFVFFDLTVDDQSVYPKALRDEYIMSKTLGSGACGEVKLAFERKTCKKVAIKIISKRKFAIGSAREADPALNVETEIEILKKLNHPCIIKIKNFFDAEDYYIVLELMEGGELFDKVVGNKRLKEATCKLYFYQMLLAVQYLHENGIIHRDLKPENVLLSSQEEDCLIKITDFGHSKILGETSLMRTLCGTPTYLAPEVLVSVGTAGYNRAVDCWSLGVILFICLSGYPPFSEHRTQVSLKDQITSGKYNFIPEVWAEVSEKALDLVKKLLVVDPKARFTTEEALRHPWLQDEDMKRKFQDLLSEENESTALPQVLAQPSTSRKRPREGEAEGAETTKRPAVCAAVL

Test [2] addresses T1, Serine/threonine-protein kinase Chk1 (Homo sapiens, UniProt O14757).
T1 sequence (O14757 whole entry): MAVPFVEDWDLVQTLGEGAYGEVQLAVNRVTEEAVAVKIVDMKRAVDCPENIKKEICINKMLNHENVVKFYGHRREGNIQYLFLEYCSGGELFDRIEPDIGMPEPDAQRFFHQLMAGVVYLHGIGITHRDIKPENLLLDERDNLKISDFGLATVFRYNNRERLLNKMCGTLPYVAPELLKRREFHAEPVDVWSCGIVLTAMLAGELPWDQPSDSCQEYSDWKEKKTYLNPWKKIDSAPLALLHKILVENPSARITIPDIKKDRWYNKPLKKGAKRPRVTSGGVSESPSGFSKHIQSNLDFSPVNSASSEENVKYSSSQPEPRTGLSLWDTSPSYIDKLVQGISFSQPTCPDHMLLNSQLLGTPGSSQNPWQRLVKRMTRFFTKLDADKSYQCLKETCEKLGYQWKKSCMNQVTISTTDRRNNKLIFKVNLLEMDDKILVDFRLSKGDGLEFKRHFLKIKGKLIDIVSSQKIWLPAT
The test can be described thus: Activity Test of Compounds in the CHK1 Coupled Reaction System: The compounds of the present disclosure used in the experiments were self-prepared, and their chemical names and structural formulas were shown in the preparation embodiments of each compound. The determination mixture containing embodiment compounds of the present disclosure and Chk1 and Chk2 kinases were incubated in a microtiter plate, and CHK1 inhibitor activity of compounds were tested by monitoring the phosphorylation of Chk1 and Chk2 kinases on a synthetic peptide substrate with a specific amino acid sequence ([…], SEQ ID NO: 1). The test was carried out on the KinaseProfiler™ protein kinase activity detection platform of Eurofins, and the experimental results were provided by the company. The procedure was as follows: Chk1 and Chk2 kinases were diluted with 20 mM MOPS (morpholinpropane sulfonic acid), 1 mM EDTA (ethylenediaminetetraacetic acid), 0.04% Brij-35, 5% glycerol, 0.1% 2-mercaptoethanol, 1 mg/mL BSA (bovine serum albumin) and added to the reaction system, and the reaction system contained the embodiment compounds, 8 mM MOPS pH 7.0, 0.2 mM EDTA, 200 sM polypeptide substrate ([…], SEQ ID NO: 1), 10 mM magnesium acetate and a certain concentration of [γ-33P]-ATP (the strength was about 500 cpm/pmol). A mixture solution of Mg2′ and ATP (adenosine triphosphate) was added to initiate the reaction and the reaction solution was incubated at room temperature for 40 min. 0.5% Phosphate buffer was added to terminate the reaction. 10 μL of the reaction solution was filtered four times on a continuous filter P30, washed three times with 0.425 phosphate buffer, and once with methanol, each wash for 4 min. The value was read with scintillation counting method after drying.

The IC50 is the midpoint of a concentration-inhibition curve. Regarding `COc1cccc(F)c1-c1[nH]nc(Nc2cnc3ccn(C4CCNCC4)c3n2)c1F`, the IC50 in test [1] is 24 nM; in test [2] it was “in the range around 2 nM”.
On to `COc1cccc(F)c1-c1cc(Nc2cnc3c(F)cn(C4CCNCC4)c3n2)n[nH]1`, for which the figures for the IC50 in test [1] and in test [2] were 2 nM and below 1 nM, respectively.
Turning to `COc1cccc(F)c1-c1cc(Nc2cnc3ccn(C4CCNCC4)c3n2)n[nH]1`, the results for the IC50 in test [1] and in test [2] were 13 nM and “in the range around 1 nM”, respectively.
Turning to `COc1nc(C)ccc1-c1cc(Nc2cnc3ccn(C4CCNCC4)c3n2)n[nH]1`, the IC50 in test [1] is 79 nM.
In the case of `COc1nc(C)ccc1-c1cc(Nc2cnc3c(F)cn(C4CCN(C)CC4)c3n2)n[nH]1`, in test [1], the IC50 is 166 nM.
As to `COc1nc(C)ccc1-c1cc(Nc2cnc3ccn(CC4CCNCC4)c3n2)n[nH]1`, the values for the IC50 in test [1] and in test [2] were 1970 nM and 5 nM, respectively.
For the molecule `COc1nc(C)ccc1-c1cc(Nc2cnc3ccn(C4CCN(C)CC4)c3n2)n[nH]1`, the IC50 in test [1] worked out at 257 nM.
The same measure, in the same setting: then `COc1nc(C)ccc1-c1cc(Nc2cnc3c(F)cn(C4CCNCC4)c3n2)n[nH]1`, with 28 nM.
